Experiments:
mTor = target: T1, mTor (Homo sapiens, UniProt P42345); experiment: In vitro kinase inhibition, mTor (Millipore/Merck kinases panel screening); assay type: biochemical; details: compound at 0.03 μM; scaffold drawing 7 series
T1 construct: purchased Millipore/Merck KGA
Protocol: (§1) In vitro kinase inhibition activities included Pi3k and mTor activities can be tested with Millipore/Merck KGA of Europe in their kinases panel screening. Animal antitumor activity testing can be conducted by various cancer xenograft models for a compound of formula I.
(§2) The following compounds or a pharmaceutically acceptable salt thereof, but not limited, can also be prepared similarly according to the methods described in Scheme I-Scheme II. They are also tested for the inhibitions on mTor or pi3k kinases, or tumor cell lines.

pi3K = experiment: In vitro kinase inhibition, pi3K (Millipore/Merck kinases panel screening); assay type: biochemical; details: compound at 0.03 μM; scaffold drawing 7 series
Protocol: as §1, §2

activity at 0.03 µM (mTor)	pi3K % activity @0.03 μM (pi3K)	Compound	mTor % activity @0.03 μM (mTor)
-5%	87%	COCCNc1ccc(-c2ccc3ncc4c(c3c2)n(-c2ccc(Cl)c(C(F)(F)F)c2)c2nncn42)cn1 [5-{16-[4-chloro-3-(trifluoromethyl)phenyl]-8,11,13,14,16-pentaazatetracyclo[8.6.0.0^2,7.0^11,15]-hexadeca-1(10),2,4,6,8,12,14-heptaen-4-yl}-N-(2-methoxyethyl)pyridin-2-amine]	–
4%	101%	FC(F)(F)c1cccc(-n2c3c4cc(-c5ccc(NCCN6CCCC6)nc5)ccc4ncc3n3cnnc23)c1 [N-[2-(pyrrolidin-1-yl)ethyl]-5-{16-[3-(trifluoromethyl)phenyl]-8,11,13,14,16-pentaazatetracyclo-[8.6.0.0^2,7.0^11,15]-hexadeca-1(10),2,4,6,8,12,14-heptaen-4-yl}pyridin-2-amine]	–
15%	98%	FC(F)(F)c1cc(-n2c3c4cc(-c5ccc(NCCN6CCCC6)nc5)ccc4ncc3n3cnnc23)ccc1Cl [5-{16-[4-chloro-3-(trifluoromethyl)phenyl]-8,11,13,14,16-pentaazatetracyclo[8.6.0.0^2,7.0^11,15]-hexadeca-1(10),2,4,6,8,12,14-heptaen-4-yl}-N-[2-(pyrrolidin-1-yl)ethyl]pyridin-2-amine]	–
9%	83%	NCC(=O)Nc1ccc(-c2ccc3ncc4c(c3c2)n(-c2ccc(Cl)c(C(F)(F)F)c2)c2nncn42)cn1 [2-amino-N-(5-{16-[4-chloro-3-(trifluoromethyl)phenyl]-8,11,13,14,16-pentaazatetracyclo-[8.6.0.0^2,7.0^11,15]hexadeca-1(10),2,4,6,8,12,14-heptaen-4-yl}pyridin-2-yl)acetamide]	–
20%	93%	FC(F)(F)c1cc(-n2c3c4cc(-c5ccc(NCCN6CCOCC6)nc5)ccc4ncc3n3cnnc23)ccc1Cl [5-{16-[4-chloro-3-(trifluoromethyl)phenyl]-8,11,13,14,16-pentaazatetracyclo[8.6.0.0^2,7.0^11,15]-hexadeca-1(10),2,4,6,8,12,14-heptaen-4-yl}-N-[2-(morpholin-4-yl)ethyl]pyridin-2-amine]	–

Further lines, the compound ahead of its results:

Compound	activity at 0.03 µM (mTor)	pi3K % activity @0.03 μM (pi3K)	mTor % activity @0.03 μM (mTor)
O=C(CN1CCOCC1)Nc1ccc(-c2ccc3ncc4c(c3c2)n(-c2cccc(C(F)(F)F)c2)c2nncn42)cn1 [2-(morpholin-4-yl)-N-(5-{16-[3-(trifluoromethyl)phenyl]-8,11,13,14,16-pentaazatetracyclo-[8.6.0.0^2,7.0^11,15]hexadeca-1(10),2,4,6,8,12,14-heptaen-4-yl}pyridin-2-yl)acetamide]	31%	95%	–
CN(C)CC(=O)Nc1ccc(-c2ccc3ncc4c(c3c2)n(-c2cccc(C(F)(F)F)c2)c2nncn42)cn1 [2-(dimethylamino)-N-(5-{16-[3-(trifluoromethyl)phenyl]-8,11,13,14,16-pentaazatetracyclo-[8.6.0.0^2,7.0^11,15]hexadeca-1(10),2,4,6,8,12,14-heptaen-4-yl}pyridin-2-yl)acetamide]	7%	89%	–
2-[(5-{16-[3-(trifluoromethyl)phenyl]-8,11,13,14,16-pentaazatetracyclo-[8.6.0.0^2,7.0^11,15]-hexadeca-1(10),2,4,6,8,12,14-heptaen-4-yl}pyridin-2-yl-amino]ethan-1-ol	–	96%	8%

From patent US10112945B2, “Fused quinoline compunds as PI3K, mTOR inhibitors” (ADVENCHEN PHARMACEUTICALS, NANJING LTD., priority 2014, dated 2018)
